Values quoted from earlier work as cited in US4374828A, “Biologically active thymones from the thymus” (Board of Reagents, The University of Texas System, priority 1980, dated 1983).

Tests used:
murine prothymocytes = conditions: in vitro
[1] = tested on: cells which had a B-lineage; conditions: in vitro

Substance: (H) Arg^32 -Lys^33 -Asp^34 -Val^35 -Tyr^36 -OH [pentapeptide]
- Differentiation of prothymocytes to thymocytes (in words) (murine prothymocytes): induced, in vitro, differentiation of murine prothymocytes to thymocytes
- Differential induction of B-lineage cells (in words) [1]: inhibited, in vitro, the differential induction of cells which had a B-lineage

Substance: NH2 -Ser-Glu-Phe-Leu-Glu^5 -Asp-Pro-Ser-Val-Leu^10 -Thr-Lys-Glu-Lys-Leu^15 -Lys-Ser-Glu-Leu-Val^20 -Ala-Asn-Val-Thr^25 -Leu-Pro-Ala-Gly-Glu^30 -Gln-Arg-Lys-Asp-Val^35 -Tyr-Val-Gln-Leu-Tyr^40 -Leu-Gln-Thr-Leu-Thr^45 -Ala-Val-Lys-Arg^49 -COOH (H-SEFLEDPSVLTKEKLKSELVANVTLPAGEQRKDVYVQLYLQTLTAVKR-OH) [thymin II, polypeptide of bovine thymin, renamed thymopoietin II]
- Induction of marrow cells (in words) (marrow cells): induce marrow cells to develop as intrathymic lymphocytes

Substance: thymopoietin: a preparation of thymopoietin
- Immune function of spleen cells (in words) (spleen cells of old mice): increased the immune function of the spleen cells of old mice
